Laboratory results as given in patent US9593305B2, “Differentiation of pluripotent stem cells” (Janssen Biotech, Inc., priority 2008, dated 2017).

Tested on: H1 human embryonic stem cells
Assay: Single-cell monolayer assay with EGF/FGF4, serum free, no activin A (Example 10, Table 10)
Type: cell-based
Experimental: Briefly, clusters of H1 human embryonic stem cells were grown on reduced growth factor […]™ (Invitrogen; Cat #356231)-coated tissue culture plastic. Cultures were treated with Accutase (Sigma; Cat #A6964), using equivalent volumes of […] surface area for 5 minutes at 37° C., then gently resuspended, pelleted by centrifugation, and resuspended in MEF conditioned medium for counting. For assay seeding, cells were plated at 50,000 cells/cm^2 on reduced growth factor […]™-coated 96-well black plates (Packard ViewPlates; Cat #6005182) using volumes of 100 μl/well. Cells were allowed to attach and recover log phase growth over a 3 to 5 day period, feeding daily with MEF conditioned medium supplemented with 8 ng/ml bFGF (R&D Systems; Cat #233-FB). Plates were maintained at 37° C., 5% CO2 in a humidified box throughout the duration of assay.
Stocks of EGF and FGF4 were prepared in a 96-well polypropylene plate (Corning, Inc.; Cat #3960). Compound 22 was available as a 5 mM stock solubilized in 100% DMSO (Sigma; Cat #D2650) and stored at −80° C. Assays were initiated by aspirating culture medium from each well followed by three washes in PBS to remove residual growth factors and serum. […]
On the second day of assay, wells were again aspirated and fed with 80 μl per well were added back containing RPMI 1640 base medium supplemented with 2.5% fatty acid free BSA, 10 ng/ml bFGF, and 3.125 μM Compound 22 plus 20 μl 5× stock of growth factors to yield a final concentration of 2% fatty acid free BSA, 8 ng/ml bFGF and 2.5 μM Compound 22 in assay. Positive control wells contained the same base medium supplemented with 2% fatty acid free BSA, 8 ng/ml bFGF and 100 ng/ml recombinant human activin A. Negative control samples contained the same base medium supplemented with 2% fatty acid free BSA and 8 ng/ml bFGF but omitted treatment with activin A.
At the conclusion of four-days of culture, assay plates were washed twice with PBS, fixed with 4% paraformaldehyde (Alexis Biochemical; Cat #ALX-350-011) at room temperature for 20 minutes, then washed three times with PBS and permeabilized with 0.5% Triton X-100 (Sigma; Cat #T8760-2) for 20 minutes at room temperature. Cells were washed again three times with PBS and blocked with 4% chicken serum (Invitrogen; Cat #16110082) in PBS for 30 minutes at room temperature. Primary antibody (goat anti-human SOX17; R&D Systems; cat #AF1924) was diluted 1:100 in 4% chicken serum and added to each well for one hour at room temperature. Alexa Fluor 488 conjugated secondary antibody (chicken anti-goat IgG; Molecular Probes; Cat #AZ1467) was diluted 1:200 in PBS and added to each sample well after washing three times with PBS. To counterstain nuclei, 4 μg/ml Hoechst 33342 (Invitrogen; Cat #H3570) was added for ten minutes at room temperature. Plates were washed once with PBS and left in 100 μl/well PBS for imaging.
Imaging was performed using an IN Cell Analyzer 1000 (GE Healthcare) utilizing the 51008bs dichroic for cells stained with Hoechst 33342 and Alexa Fluor 488. Exposure times were optimized from positive control wells and from untreated negative control wells stained with secondary antibody alone. Images from 15 fields per well were acquired to compensate for any cell loss during the bioassay and subsequent staining procedures. Measurements for total cell number and total SOX17 intensity were obtained from each well using IN Cell Developer Toolbox 1.7 (GE Healthcare) software. Segmentation for the nuclei was determined based on gray-scale levels (baseline range 100-300) and nuclear size. Averages and standard deviations were calculated for each replicate data set. Total SOX17 protein expression was reported as total intensity or integrated intensity, defined as total fluorescence of the cell multiplied by the area of the cell. Background was eliminated based on acceptance criteria of gray-scale ranges between 200 to 3500. […]

[1] = No AA (with Wnt3a), FGF none, EGF none
[2] = No AA (with Wnt3a), FGF none, EGF(25 ng/ml)
[3] = No AA (with Wnt3a), FGF none, EGF(50 ng/ml)
[4] = No AA (with Wnt3a), FGF none, EGF(100 ng/ml)
[5] = No AA (with Wnt3a), FGF(25 ng/ml), EGF none
[6] = No AA (with Wnt3a), FGF(25 ng/ml), EGF(25 ng/ml)
[7] = No AA (with Wnt3a), FGF(25 ng/ml), EGF(50 ng/ml)
[8] = No AA (with Wnt3a), FGF(25 ng/ml), EGF(100 ng/ml)
[9] = No AA (with Wnt3a), FGF(50 ng/ml), EGF none
[10] = No AA (with Wnt3a), FGF(50 ng/ml), EGF(25 ng/ml)
[11] = No AA (with Wnt3a), FGF(50 ng/ml), EGF(50 ng/ml)
[12] = No AA (with Wnt3a), FGF(50 ng/ml), EGF(100 ng/ml)
[13] = No AA (with Wnt3a), FGF(100 ng/ml), EGF none
[14] = No AA (with Wnt3a), FGF(100 ng/ml), EGF(25 ng/ml)
[15] = No AA (with Wnt3a), FGF(100 ng/ml), EGF(50 ng/ml)
[16] = No AA (with Wnt3a), FGF(100 ng/ml), EGF(100 ng/ml)
[17] = No AA (without Wnt3a), FGF(50 ng/ml), EGF(50 ng/ml)
[18] = No AA (without Wnt3a), FGF(50 ng/ml), EGF(100 ng/ml)
[19] = No AA (without Wnt3a), FGF(100 ng/ml), EGF(50 ng/ml)
[20] = No AA (without Wnt3a), FGF(100 ng/ml), EGF(100 ng/ml)
[21] = Activin A (with Wnt3a), positive control

O=C1CCN2CCN(CC2)Cc2cc(Cl)cc(c2)Nc2ncnc(n2)-c2cncc(c2)CCCN1 [Compound 34, 5-Chloro-1,8,10,12,16,22,26,32-octaazapentacyclo[24.2.2.1˜3.7˜0.1˜9,13˜0.1˜14.18˜]tritriaconta-3(33), 4,6,9(32), 10,12,14(31), 15,17-nonaen-23-one]
Cell Number, % of positive control [1]: 92.38%
Cell Number, Average Total Cell Number [1]: 11711
Sox17 Expression, % of positive control [1]: 60.68%
Sox17 Expression, Average Total Intensity [1]: 1.65E+08
Cell Number, % of positive control [2]: 126.63%
Cell Number, Average Total Cell Number [2]: 16052
Sox17 Expression, % of positive control [2]: 78.82%
Sox17 Expression, Average Total Intensity [2]: 2.14E+08
Cell Number, % of positive control [3]: 107.23%
Cell Number, Average Total Cell Number [3]: 13593
Sox17 Expression, % of positive control [3]: 71.52%
Sox17 Expression, Average Total Intensity [3]: 1.94E+08
Cell Number, % of positive control [4]: 103.90%
Cell Number, Average Total Cell Number [4]: 13170
Sox17 Expression, % of positive control [4]: 71.04%
Sox17 Expression, Average Total Intensity [4]: 1.93E+08
Cell Number, % of positive control [5]: 145.41%
Cell Number, Average Total Cell Number [5]: 18433
Sox17 Expression, % of positive control [5]: 91.72%
Sox17 Expression, Average Total Intensity [5]: 2.49E+08
Cell Number, % of positive control [6]: 148.63%
Cell Number, Average Total Cell Number [6]: 18841
Sox17 Expression, % of positive control [6]: 95.72%
Sox17 Expression, Average Total Intensity [6]: 2.60E+08
Cell Number, % of positive control [7]: 128.05%
Cell Number, Average Total Cell Number [7]: 16232
Sox17 Expression, % of positive control [7]: 84.79%
Sox17 Expression, Average Total Intensity [7]: 2.30E+08
Cell Number, % of positive control [8]: 73.44%
Cell Number, Average Total Cell Number [8]: 9309
Sox17 Expression, % of positive control [8]: 51.00%
Sox17 Expression, Average Total Intensity [8]: 1.39E+08
Cell Number, % of positive control [9]: 100.64%
Cell Number, Average Total Cell Number [9]: 12757
Sox17 Expression, % of positive control [9]: 61.10%
Sox17 Expression, Average Total Intensity [9]: 1.66E+08
Cell Number, % of positive control [10]: 139.79%
Cell Number, Average Total Cell Number [10]: 17720
Sox17 Expression, % of positive control [10]: 85.01%
Sox17 Expression, Average Total Intensity [10]: 2.31E+08
Cell Number, % of positive control [11]: 128.83%
Cell Number, Average Total Cell Number [11]: 16331
Sox17 Expression, % of positive control [11]: 83.11%
Sox17 Expression, Average Total Intensity [11]: 2.26E+08
Cell Number, % of positive control [12]: 128.87%
Cell Number, Average Total Cell Number [12]: 16336
Sox17 Expression, % of positive control [12]: 85.24%
Sox17 Expression, Average Total Intensity [12]: 2.32E+08
Cell Number, % of positive control [13]: 156.61%
Cell Number, Average Total Cell Number [13]: 19853
Sox17 Expression, % of positive control [13]: 95.45%
Sox17 Expression, Average Total Intensity [13]: 2.59E+08
Cell Number, % of positive control [14]: 156.83%
Cell Number, Average Total Cell Number [14]: 19880
Sox17 Expression, % of positive control [14]: 95.47%
Sox17 Expression, Average Total Intensity [14]: 2.59E+08
Cell Number, % of positive control [15]: 143.30%
Cell Number, Average Total Cell Number [15]: 18166
Sox17 Expression, % of positive control [15]: 86.30%
Sox17 Expression, Average Total Intensity [15]: 2.35E+08
Cell Number, % of positive control [16]: 88.68%
Cell Number, Average Total Cell Number [16]: 11241
Sox17 Expression, % of positive control [16]: 57.10%
Sox17 Expression, Average Total Intensity [16]: 1.55E+08
Cell Number, % of positive control [17]: 105.06%
Cell Number, Average Total Cell Number [17]: 13317
Sox17 Expression, % of positive control [17]: 74.08%
Sox17 Expression, Average Total Intensity [17]: 2.01E+08
Cell Number, % of positive control [18]: 111.93%
Cell Number, Average Total Cell Number [18]: 14189
Sox17 Expression, % of positive control [18]: 73.90%
Sox17 Expression, Average Total Intensity [18]: 2.01E+08
Cell Number, % of positive control [19]: 99.52%
Cell Number, Average Total Cell Number [19]: 12616
Sox17 Expression, % of positive control [19]: 66.21%
Sox17 Expression, Average Total Intensity [19]: 1.80E+08
Cell Number, % of positive control [20]: 65.23%
Cell Number, Average Total Cell Number [20]: 8269
Sox17 Expression, % of positive control [20]: 41.73%
SOX17 expression (compound added to EGF and/or FGF4, single cells, no activin A): significant enhancement of SOX17 expression

Activin A: recombinant human activin A (PeproTech), TGF-beta family member
Cell Number, % of positive control [21]: 100.00%
Cell Number, Average Total Cell Number [21]: 12676
Sox17 Expression, % of positive control [21]: 100.00%
Sox17 Expression, Average Total Intensity [21]: 2.72E+08
